Test results: patent US6689806B1, “Indolinone compounds as kinase inhibitors” (Sugen, Inc., priority 1999, dated 2004)
pIC50: −log10 of the molar value. Like-named read-outs stand apart in the source and are kept apart here.

Legend:
[1] = target: T1, Her2 (Homo sapiens, UniProt P04626); experiment: HER-2 ELISA: EGF receptor-HER2 chimeric receptor assay in whole cells (HER2 kinase); type: cell-based; conditions: NIH3T3 cells with EGFR/HER2 chimeric receptor, phosphotyrosine ELISA
T1 construct: fused on or other part: P00533 (Epidermal growth factor receptor)
Protocol: Assay 1: EGF Receptor-HER2 Chimeric Receptor Assay In Whole Cells.
HER2 kinase activity in whole EGFR-NIH3T3 cells was measured as described below:
1. An NIH3T3 cell line overexpressing a chimeric receptor containing the EGFR extracellular domain and intracellular HER2 kinase domain can be used for this assay.
3. Resuspend cells in seeding medium (DMEM, 0.5% bovine serum), and count the cells using trypan blue. Viability above 90% is acceptable. Seed cells in DMEM medium (0.5% bovine serum) at a density of 10,000 cells per well, 100 μL per well, in a 96 well microtiter plate. Incubate seeded cells in 5% CO2 at 37° C. for about 40 hours.
1. Check seeded cells for contamination using an inverted microscope. Dilute drug stock (10 mg/mL in DMSO) 1:10 in DMEM medium, then transfer 5 μL to a TBST well for a final drug dilution of 1:200 and a final DMSO concentration of 1%. Control wells receive DMSO alone. Incubate in 5% CO2 at 37° C. for two hours.
2. Prepare EGF ligand: dilute stock EGF in DMEM so that upon transfer of 10 μL dilute EGF (1:12 dilution), 100 nM final concentration is attained.
4. After 120 minutes incubation with drug, add prepared […] ligand to cells, 10 μL per well, to a final concentration of 100 nM. Control wells receive DMEM alone. Incubate, shaking, at room temperature, for 5 minutes.
5. Remove drug, EGF, and DMEM. Wash cells twice with PBS. Transfer HNTG* to cells, 100 μL per well. Place on ice for 5 minutes. Meanwhile, remove blocking buffer from other ELISA plate and wash with TBST as described above.
6. With a pipette tip securely fitted to a micropipettor, scrape cells from plate and homogenize cell material by repeatedly aspirating and dispensing the HNTG* lysis buffer. Transfer lysate to a coated, blocked, and washed ELISA plate. Incubate shaking at room temperature for one hour.
7. Remove lysate and wash 4 times with TBST. Transfer freshly diluted anti-Ptyr antibody to ELISA plate at 100 μL per well. Incubate shaking at room temperature for 30 minutes in the presence of the anti-Ptyr antiserum (1:3000 dilution in TBST).
8. Remove the anti-Ptyr antibody and wash 4 times with TBST. Transfer the freshly diluted TAGO anti-rabbit IgG antibody to the ELISA plate at 100 μL per well. Incubate shaking at room temperature for 30 minutes (anti-rabbit IgG antibody: 1:3000 dilution in TBST).
9. Remove TAGO detection antibody and wash 4 times with TBST. Transfer freshly prepared ABTS/H2O2 solution to ELISA plate, 100 μL per well. Incubate shaking at room temperature for 20 minutes. (ABTS/H2O2 solution: 1.0 μL 30% H2O2 in 10 mL ABTS stock).
10. Stop reaction by adding 50 μL 5N H2SO4 (optional), and determine O.D. at 410 nm.
11. The maximal phosphotyrosine signal is determined by subtracting the value of the negative controls from the positive controls. The percent inhibition of phosphotyrosine content for extract-containing wells is then calculated, after subtraction of the negative controls.

[2] = system: SKOV3; experiment: SKOV3 growth; type: cell-based; conditions: Homo sapiens, SK-OV-3, SKOV3 cells
[3] = system: A431; experiment: A431 growth; type: cell-based; conditions: Homo sapiens, A-431, A431 cells
[4] = target: PDGFR (Homo sapiens, UniProt P09619); experiment: Biochemical PDGFR assay (ELISA); parameters: expressed in transfected cells; host or cells: NIH 3T3; conditions: read-out: PDGFr biochem IC50
Protocol: This assay measures the in vitro kinase activity of PDGFR using ELISA.
6. PDGFR-β expressing NlH 3T3 cell lysate.
1. Coat Corning 96 well ELISA plates with 0.5 μg 28D4C10 in 100 μL PBS per well, store overnight at 4° C.
5. Dilute lysate in HNTG (10 μg lysate/100 μL HNTG)
(§1) 6. Add 100 μL of diluted lysate to each well. Shake at room temperature for 60 min.
8. Add 80 μL working kinase buffer mix to ELISA plate containing captured PDGFR.
9. Dilute test compound 1:10 in TBS in 96-well polypropylene plates (i.e., 10 μL compound+90 μL TBS).
10. Add 10 μL diluted test compound to ELISA plate.
11. Incubate for 30 minutes while shaking at room temperature.
12. Add 10 μL ATP directly to all wells except negative control well (final well volume should be approximately 100 μL with 20 μM ATP in each well.) Incubate 30 minutes while shaking.
13. After 30 minutes, stop reaction by adding 10 μL of 200 mM EDTA (pH 8.0) to each well.
(§2) 15. Add 100 μL anti-phosphotyrosine (1:3000 dilution in TBST) per well. Incubate 30-45 min. at room temperature, with shaking.
(§3) 17. Add 100 μL Biosource Goat anti-rabbit IgG peroxidase conjugate (1:2000 dilution in TBST) to each well. Incubate 30 min. at room temperature, with shaking.
(§4) 19. Add 100 μL of ABTS/H2O2 solution to each well.
22. Read assay on Dynatech MR7000 ELISA reader: test filter: 410 nM, reference filter: 630 nM.

[5] = target: EGFR (Homo sapiens, UniProt P00533); experiment: Biochemical EGFR assay (ELISA); parameters: A431 cell lysate; endogenous in cells; host or cells: A431; conditions: read-out: EGFr biochem IC50
Protocol: This assay measures the in vitro kinase activity of EGFR using ELISA.
1. Coat Coming 96 well ELISA plates with 0.5 μg SUMOl in 100 μL PBS per well, store overnight at 4° C.
5. Dilute lysate in PBS (7 μg lysate/100 μL PBS).
as §1
8. Add 120 μL TBS to ELISA plate containing captured EGFR.
9. Dilute test compound 1:10 in TBS in 96-well polypropylene plates (ie. 10 μL compound+90 μL TBS).
10. Add 13.5 μL diluted test compound to ELISA plate.
13. After 5 minutes, stop reaction by adding 16.5 μL of 200 mM EDTA (pH 8.0) to each well, shaking continuously. After the EDTA has been added, shake for 1 mm.
as §2, §3, §4
22. Read assay on Dynatech MR7000 ELISA reader. Test Filter: 410 nM Reference Filter: 630 Nm.

[6] = target: T1, Her2; experiment: EGF-induced Her2-driven BrdU incorporation; type: cell-based; conditions: Table 7; 3T3 cells with EGF-R/Her2 chimeric receptor, EGF 2 nM; read-out: BrdU DNA syn. HER2 IC50
Protocol: The cellular/biologic assays described herein measure the amount of DNA made in response to activation of a test kinase, which is a general measure of a proliferative response. The general procedure for this assay is as follows: a compound is introduced to cells expressing the test kinase, either naturally or recombinantly, for some period of time after which, if the test kinase is a receptor, a ligand known to activate the receptor is added. After incubation at least overnight, a DNA labeling reagent such as Bromodeoxy-uridine (BrdU) or 3H-thymidine is added. The amount of labeled DNA is detected with either an anti-BrdU antibody or by measuring radioactivity and is compared to control cells not contacted with a test compound.
EGF-Induced Her2-Driven BrdU Incorporation
(8) 3T3 cell line engineered to express a chimeric receptor having the extra-cellular domain of EGF-R and the intra-cellular domain of Her2.
(1) Cells are seeded at 8000 cells/well in DMEM, 10% CS, 2 mM Gln in a 96-well plate. Cells are incubated overnight at 37° C. in 5% CO2.
(2) After 24 hours, the cells are washed with PBS, and then are serum starved in serum free medium (0% CS DMEM with 0.1% BSA) for 24 hours.
(3) On day 3, ligand (EGF=2 nM, prepared in DMEM with 0.1% BSA) and test compounds are added to the cells simultaneously. The negative control wells receive serum free DMEM with 0.1% BSA only; the positive control cells receive the ligand (EGF) but no test compound. Test compounds are prepared in serum free DMEM with ligand in a 96 well plate, and serially diluted for 7 test concentrations.
(4) After 20 hours of ligand activation, diluted BrdU labeling reagent (1:100 in DMEM, 0.1% BSA) is added and the cells are incubated with BrdU (final concentration=[…]) for 1.5 hours.
(10) The absorbance of the samples are measured at 410 nm (in “dual wavelength” mode with a filter reading at 490 nm, as a reference wavelength) on a Dynatech ELISA plate reader.

[7] = Table 5, in vitro kinase activity
[8] = Table 7, in vitro kinase activity

Sequence of EGFR (P00533 25-1210): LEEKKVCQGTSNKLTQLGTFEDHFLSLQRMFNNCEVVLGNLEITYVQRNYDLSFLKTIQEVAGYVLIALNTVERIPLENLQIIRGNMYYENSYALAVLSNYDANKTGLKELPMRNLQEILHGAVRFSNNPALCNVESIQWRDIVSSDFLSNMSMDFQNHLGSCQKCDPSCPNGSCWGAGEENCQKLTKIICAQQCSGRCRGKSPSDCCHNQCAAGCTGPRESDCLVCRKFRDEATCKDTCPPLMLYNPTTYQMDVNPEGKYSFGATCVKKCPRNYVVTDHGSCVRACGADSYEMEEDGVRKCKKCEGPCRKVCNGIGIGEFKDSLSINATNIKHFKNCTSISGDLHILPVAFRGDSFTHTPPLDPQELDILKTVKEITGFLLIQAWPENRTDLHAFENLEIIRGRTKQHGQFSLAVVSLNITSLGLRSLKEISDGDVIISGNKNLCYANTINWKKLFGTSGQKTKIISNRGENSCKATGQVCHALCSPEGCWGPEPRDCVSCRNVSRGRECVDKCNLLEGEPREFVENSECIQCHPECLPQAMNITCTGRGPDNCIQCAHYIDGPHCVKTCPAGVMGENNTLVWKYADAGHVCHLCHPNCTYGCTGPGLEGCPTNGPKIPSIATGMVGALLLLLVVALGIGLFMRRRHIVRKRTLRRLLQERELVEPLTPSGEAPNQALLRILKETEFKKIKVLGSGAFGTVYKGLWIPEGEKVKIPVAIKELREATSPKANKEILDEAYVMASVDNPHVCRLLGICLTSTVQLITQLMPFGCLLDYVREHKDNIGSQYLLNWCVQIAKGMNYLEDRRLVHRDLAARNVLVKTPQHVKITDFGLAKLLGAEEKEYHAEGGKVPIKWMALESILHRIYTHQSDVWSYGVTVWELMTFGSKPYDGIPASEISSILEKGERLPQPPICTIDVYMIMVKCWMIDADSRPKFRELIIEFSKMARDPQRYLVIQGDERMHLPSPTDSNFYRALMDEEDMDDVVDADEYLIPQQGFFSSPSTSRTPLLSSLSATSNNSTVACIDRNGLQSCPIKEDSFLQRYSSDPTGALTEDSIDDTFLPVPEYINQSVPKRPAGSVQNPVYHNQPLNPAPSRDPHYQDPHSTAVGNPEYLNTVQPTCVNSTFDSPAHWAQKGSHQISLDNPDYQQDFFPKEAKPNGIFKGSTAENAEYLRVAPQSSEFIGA
Sequence of PDGFR (P09619 33-1106): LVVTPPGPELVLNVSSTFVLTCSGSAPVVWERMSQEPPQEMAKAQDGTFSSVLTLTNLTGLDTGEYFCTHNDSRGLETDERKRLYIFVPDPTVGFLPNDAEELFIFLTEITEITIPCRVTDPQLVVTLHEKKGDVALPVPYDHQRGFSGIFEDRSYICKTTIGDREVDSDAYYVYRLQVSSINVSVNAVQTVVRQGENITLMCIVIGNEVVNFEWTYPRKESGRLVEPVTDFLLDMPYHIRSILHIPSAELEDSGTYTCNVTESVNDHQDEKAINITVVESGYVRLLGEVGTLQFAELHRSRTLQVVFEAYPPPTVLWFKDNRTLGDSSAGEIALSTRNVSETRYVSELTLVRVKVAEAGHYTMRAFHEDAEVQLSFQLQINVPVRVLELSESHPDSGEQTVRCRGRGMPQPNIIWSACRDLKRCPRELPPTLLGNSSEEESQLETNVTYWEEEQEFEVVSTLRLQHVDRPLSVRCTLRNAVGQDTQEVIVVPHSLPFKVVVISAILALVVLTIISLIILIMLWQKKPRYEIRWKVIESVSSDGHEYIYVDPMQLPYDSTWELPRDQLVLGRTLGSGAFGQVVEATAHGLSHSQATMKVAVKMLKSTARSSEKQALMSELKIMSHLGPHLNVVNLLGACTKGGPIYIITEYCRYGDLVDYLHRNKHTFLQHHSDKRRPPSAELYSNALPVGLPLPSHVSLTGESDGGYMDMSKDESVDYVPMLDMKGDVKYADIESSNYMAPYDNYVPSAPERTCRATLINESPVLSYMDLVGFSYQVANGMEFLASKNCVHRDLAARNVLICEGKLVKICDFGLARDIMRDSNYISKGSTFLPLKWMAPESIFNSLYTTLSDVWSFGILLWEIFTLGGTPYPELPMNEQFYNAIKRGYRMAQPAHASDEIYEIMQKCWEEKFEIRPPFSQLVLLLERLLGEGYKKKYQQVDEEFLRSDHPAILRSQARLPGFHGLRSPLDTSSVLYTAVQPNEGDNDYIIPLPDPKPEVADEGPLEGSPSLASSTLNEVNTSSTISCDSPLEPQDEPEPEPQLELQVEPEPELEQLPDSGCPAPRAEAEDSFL
T1 sequence (P04626 676-1255 limits assumed): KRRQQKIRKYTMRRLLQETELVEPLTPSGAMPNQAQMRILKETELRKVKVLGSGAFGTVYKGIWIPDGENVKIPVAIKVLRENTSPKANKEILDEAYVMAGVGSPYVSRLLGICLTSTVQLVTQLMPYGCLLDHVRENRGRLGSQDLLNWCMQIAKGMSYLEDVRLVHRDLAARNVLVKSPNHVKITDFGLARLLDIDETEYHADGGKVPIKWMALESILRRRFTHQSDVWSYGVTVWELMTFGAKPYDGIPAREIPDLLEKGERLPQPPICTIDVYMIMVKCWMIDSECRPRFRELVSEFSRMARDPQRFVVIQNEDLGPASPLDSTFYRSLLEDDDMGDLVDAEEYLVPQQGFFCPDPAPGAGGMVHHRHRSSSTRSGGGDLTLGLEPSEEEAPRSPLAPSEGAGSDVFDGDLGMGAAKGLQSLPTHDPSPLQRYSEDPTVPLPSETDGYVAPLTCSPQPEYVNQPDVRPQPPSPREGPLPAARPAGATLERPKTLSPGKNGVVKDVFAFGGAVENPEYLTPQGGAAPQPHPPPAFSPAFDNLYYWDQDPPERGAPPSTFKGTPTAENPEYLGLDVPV

pIC50 ([1]; Table 5)	pIC50 ([2]; Table 5)	pIC50 ([3]; Table 5)	pIC50 [4, 7]	pIC50 [5, 7]	pIC50 ([1]; Table 7)	pIC50 ([2]; Table 7)	pIC50 ([3]; Table 7)	pIC50 [4, 8]	pIC50 [5, 8]	pIC50 [6]	SMILES
< 4.00	5.28	5.28	< 4.00	< 4.00							COc1cc(C)c(CC2C(=O)Nc3ccccc32)cc1C(C)C (centres unmarked) [AAI-9, 3-(5-Isopropyl-4-methoxy-2-methylbenzyl)-1,3-dihydroindol-2-one]
< 4.00	< 4.30	< 4.30	< 4.00	< 4.00							O=C1Nc2cccc(CCO)c2C1Cc1ccccc1 (centres unmarked) [AAI-12, 3-Benzyl-4-(2-hydroxyethyl)-1,3-dihydroindol-2-one]
					4.64	5.01	5.38	< 4.00	< 4.00		O=C1Nc2cccc(CCO)c2/C1=C/c1ccc2[nH]ccc2c1 [IN-007, 4-(2-Hydroxy-ethyl)-3-(1H-indol-5-ylmethylene)-1,3-dihydro-indol-2-one]
					< 4.00	4.60	4.87		< 4.00	5.38	Cc1[nH]c(/C=C2\C(=O)Nc3cccc(CCO)c32)c(C)c1CCCN(C)C [IN-009, 3-[4-(3-Dimethylamino-propyl)-3,5-dimethyl-1H-pyrrol-2-ylmethylene]-4-(2-hydroxy-ethyl)-1,3-dihydro-indol-2-one]
